Assay results as given in patent US20230167127A1, “COMPOUNDS AND THEIR USE IN THE TREATMENT OF BACTERIAL INFECTION” (Hoffmann-La Roche Inc., priority 2020, published 2023).
Like-named read-outs stand apart in the source and are kept apart here.

Test system: Escherichia coli ATCC 25922
Test: 50% growth inhibitory concentration (IC50) determination, Iso-Sensitest broth dilution
Format: cell-based
Conditions: strain Escherichia coli ATCC 25922, 10-point broth dilution, optical density at 600 nm over 16 h, read-out: Escherichia coli growth inhibition IC50
In short: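 Growth was tracked as optical density at 600 nm every 20 minutes for 16 h at 35±2° C. Compounds from DMSO stocks were serially diluted twofold over 10 points (e.g. 50–0.097 μM final) in Iso-Sensitest broth. Inhibition computed in log-phase growth to give IC50.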

[1] = Escherichia coli, ATCC25922, 16 h

| IC50 [1] | IC50 | SMILES |
| --- | --- | --- |
| < 97.7 nM | – | Cc1nc(Cl)c2c(c1F)CC(CNCCC1CN(c3ccc4c(n3)NC(=O)CO4)C(=O)O1)C2 (centres unmarked) [Example 256, 6-[5-[2-[(1-Chloro-4-fluoro-3-methyl-6,7-dihydro-5H-cyclopenta[c]pyridin-6-yl)methylamino]ethyl]-2-oxo-1,3-oxazolidin-3-yl]-4H-pyrido[3,2-b][1,4]oxazin-3-one] |
| < 97.7 nM | – | CNC(=O)COc1cc(F)c2c(c1F)CC(CNCCC1CN(c3cnc4c(n3)NC(=O)CO4)C(=O)O1)C2 (centres unmarked) [Example 393, 2-[[4,7-difluoro-2-[[2-[2-oxo-3-(3-oxo-4H-pyrazino[2,3-b][1,4]oxazin-6-yl)-1,3-oxazolidin-5-yl]ethylamino]methyl]-2,3-dihydro-1H-inden-5-yl]oxy]-N-methylacetamide] |
| 369 nM | – | Cc1ncc(F)c2c1CC(N[C@H]1CC[C@@]3(CC1)CN(c1cnc4c(n1)NC(=O)CO4)C(=O)O3)C2 (some centres unmarked) [Example 298] |
| < 97.7 nM | – | O=C1COc2ccc(N3CC(CNCCC4Cc5cccc(Cl)c5C4)OC3=O)nc2N1 (centres unmarked) [Example 26, 6-[5-[ [2-(4-chloro-2,3-dihydro-1H-inden-2-yl)ethylamino]methyl]-2-oxo-1,3-oxazolidin-3-yl]-4H-pyrido[3,2-b][1,4]oxazin-3-one; formic acid] |
| 261 nM | – | NC1c2cccc(Cl)c2CC1CNCCC1CN(c2ncc3c(n2)NC(=O)CO3)C(=O)O1 (racemic) [Example 290, 2-[5-[2-[(rac-1,2-trans-1-amino-4-chloro-2,3-dihydro-1H-inden-2-yl)methylamino]ethyl]-2-oxo-1,3-oxazolidin-3-yl]-8H-pyrimido[5,4-b][1,4]oxazin-7-one] |
| < 97.7 nM | – | O=C1COc2ccc(N3CC(CCCNC4Cc5cccc(Cl)c5C4)OC3=O)nc2N1 (centres unmarked) [Example 4, 6-[5-[3-[(4-chloro-2,3-dihydro-1H-inden-2-yl)amino]propyl]-2-oxo-1,3-oxazolidin-3-yl]-4H-pyrido[3,2-b][1,4]oxazin-3-one] |
| 281 nM | – | CN(CCOc1cc(F)c2c(c1)CC(CNCCC1CN(c3cnc4c(n3)NC(=O)CO4)C(=O)O1)C2)S(C)(=O)=O (centres unmarked) [Example 325, N-[2-[[7-fluoro-2-[[2-[2-oxo-3-(3-oxo-4H-pyrazino[2,3-b][1,4]oxazin-6-yl)-1,3-oxazolidin-5-yl]ethylamino]methyl]-2,3-dihydro-1H-inden-5-yl]oxy]ethyl]-N-methylmethanesulfonamide] |
| 468 nM | – | Cc1nc2c(c3c1CC(CNCCC1CN(c4ccc5c(n4)NC(=O)CO5)C(=O)O1)C3)CCN2 (centres unmarked) [Example 423, 6-[5-[2-[(8-Methyl-5,7-diazatricyclo[7.3.0.0^2.6]dodeca-1,6,8-trien-11-yl)methylamino]ethyl]-2-oxo-1,3-oxazolidin-3-yl]-4H-pyrido[3,2-b][1,4]oxazin-3-one] |
| 88.4 nM | – | Cc1nc(OCC2COCCN2)c(C)c2c1CC(CNCCC1CN(c3ccc4c(n3)NC(=O)CO4)C(=O)O1)C2 (centres unmarked) [Example 199, 6-[5-[2-[[1,4-dimethyl-3-(morpholin-3-ylmethoxy)-6,7-dihydro-5H-cyclopenta[c]pyridin-6-yl]methylamino]ethyl]-2-oxo-1,3-oxazolidin-3-yl]-4H-pyrido[3,2-b][1,4]oxazin-3-one] |
| 393 nM | – | CN(C)C(=O)COc1cc(F)c2c(c1)CC(CNCCC1CN(c3ccc4c(n3)NC(=O)CO4)C(=O)O1)C2 (centres unmarked) [Example 77, 2-[[7-fluoro-2-[[2-[2-oxo-3-(3-oxo-4H-pyrido[3,2-b][1,4]oxazin-6-yl)-1,3-oxazolidin-5-yl]ethylamino]methyl]-2,3-dihydro-1H-inden-5-yl]oxy]-N,N-dimethylacetamide] |
| 447 nM | – | O=C1COc2ccc(N3CC(CCCNC4Cc5ccc(Cl)cc5C4)OC3=O)nc2N1 (centres unmarked) [Example 10, 6-[5-[3-[(5-chloro-2,3-dihydro-1H-inden-2-yl)amino]propyl]-2-oxo-1,3-oxazolidin-3-yl]-4H-pyrido[3,2-b][1,4]oxazin-3-one; formic acid] |
| 359 nM | – | N#Cc1cccc2c1CC(CNCCC1(N)CC(=O)N(c3ccc4c(n3)NC(=O)CO4)C1)C2 (centres unmarked) [Example 138, 2-[[2-[3-amino-5-oxo-1-(3-oxo-4H-pyrido[3,2-b][1,4]oxazin-6-yl)pyrrolidin-3-yl]ethylamino]methyl]-2,3-dihydro-1H-indene-4-carbonitrile] |
| < 97.7 nM | – | CC(N)COc1cc(C#N)c2c(c1)CC(CNCCC1CN(c3ccc4c(n3)NC(=O)CO4)C(=O)O1)C2 (centres unmarked) [Example 192, 6-(2-aminopropoxy)-2-[[2-[2-oxo-3-(3-oxo-4H-pyrido[3,2-b][1,4]oxazin-6-yl)-1,3-oxazolidin-5-yl]ethylamino]methyl]-2,3-dihydro-1H-inclene-4-carbonitrile; 2,2,2-trifluoroacetic acid] |
| – | 217 nM | O=C1COc2ncc(N3CC(CC(O)CNC4Cc5cccc(F)c5C4)OC3=O)nc2N1 (single isomer, unassigned; isomer b) [Example 84, 6-[5-[3-[(4-fluoro-2,3-dihydro-1H-inden-2-yl)amino]-2-hydroxypropyl]-2-oxo-1,3-oxazolidin-3-yl]-4H-pyrazino[2,3-b][1,4]oxazin-3-one, Isomer B; formic acid] |
| 1690 nM | – | Cc1nc(OCC2CC(=O)N(C)C2)c(C)c2c1CC(CNCCC1CN(c3ccc4c(n3)NC(=O)CO4)C(=O)O1)C2 (centres unmarked) [Example 103, 6-[5-[2-[[1,4-dimethyl-3-[(1-methyl-5-oxopyrrolidin-3-yl)methoxy]-6,7-dihydro-5H-cyclopenta[c]pyridin-6-yl]methylamino]ethyl]-2-oxo-1,3-oxazolidin-3-yl]-4H-pyrido[3,2-b][1,4]oxazin-3-one] |
| 1260 nM | – | N#Cc1cccc2c1CC(CN[C@H]1CC[C@H](C3CN(c4ccc5c(n4)NC(=O)CO5)C(=O)O3)CC1)C2 (stereo partly drawn) [Example 100, 2-[[[trans-4-[2-oxo-3-(3-oxo-4H-pyrido[3,2-b][1,4]oxazin-6-yl)-1,3-oxazolidin-5-yl]cyclohexyl]amino]methyl]-2,3-dihydro-1H-indene-4-carbonitrile; formic acid] |
| 140 nM | – | N#Cc1cccc2c1C(O)C(CNCCC1CN(c3ccc4c(n3)NC(=O)CO4)C(=O)O1)C2 (racemic) [Example 151, rac-2,3-trans-3-hydroxy-2-[[2-[2-oxo-3-(3-oxo-4H-pyrido[3,2-b][1,4]oxazin-6-yl)-1,3-oxazolidin-5-yl]ethylamino]methyl]-2,3-dihydro-1H-indene-4-carbonitrile; formic acid] |
| < 97.7 nM | – | Cc1ncc(C#N)c2c1CC(CNCCC1CN(c3ccc4c(n3)NC(=O)CO4)C(=O)O1)C2 (centres unmarked) [Example 47, 1-methyl-6-[[2-[2-oxo-3-(3-oxo-4H-pyrido[3,2-b][1,4]oxazin-6-yl)-1,3-oxazolidin-5-yl]ethylamino]methyl]-6,7-dihydro-5H-cyclopenta[c]pyridine-4-carbonitrile; formic acid] |
| 840 nM | – | O=C1COc2ccc(N3CC([C@H]4C[C@@H](NC5Cc6cccc(Cl)c6C5)C4)OC3=O)nc2N1 (stereo partly drawn) [Example 16, 6-[5-[cis-3-[(4-chloro-2,3-dihydro-1H-inden-2-yl)amino]cyclobutyl]-2-oxo-1,3-oxazolidin-3-yl]-4H-pyrido[3,2-b][1,4]oxazin-3-one; formic acid] |
| 617 nM | – | O=C1COc2ncc(N3CC(CCNCC4Cc5cc(OCCn6nccn6)cc(F)c5C4)OC3=O)nc2N1 (centres unmarked) [Example 343, 6-[5-[2-[[4-fluoro-6-(2-(triazol-2-yl)ethoxy]-2,3-dihydro-1H-inden-2-yl]methylamino]ethyl]-2-oxo-1,3-oxazolidin-3-yl]-4H-pyrazino[2,3-b][1,4]oxazin-3-one; formic acid] |
| < 97.7 nM | – | NC1c2cccc(Cl)c2CC1CN[C@H]1C[C@@]2(CN(c3ccc4c(n3)NC(=O)CO4)C(=O)O2)C1 (mixture of isomers) [Example 211, 2,4-trans-6-[6-oxo-2-[[rac-1,2-trans-1-amino-4-chloro-2,3-dihydro-1H-inden-2-yl]methylamino]-5-oxa-7-azaspiro[3.4]octan-7-yl]-4H-pyrido[3,2-b][1,4]oxazin-3-one] |
| < 97.7 nM | – | NC1c2cccc(Cl)c2CC1CNCCc1cn(-c2cnc3c(n2)NC(=O)CO3)c(=O)o1 (racemic) [Example 359, 6-[5-[2-[(rac-1,2-trans-1-amino-4-chloro-2,3-dihydro-1H-inden-2-yl)methylamino]ethyl]-2-oxo-1,3-oxazol-3-yl]-4H-pyrazino[2,3-b][1,4]oxazin-3-one; formic acid] |
| 99.5 nM | – | Cc1nc(OCCNC2CC2)c(C)c2c1CC(CNCCC1CN(c3ccc4c(n3)NC(=O)CO4)C(=O)O1)C2 (centres unmarked) [Example 189, 6-[5-[2-[[3-[2-(cyclopropylamino)ethoxy]-1,4-dimethyl-6,7-dihydro-5H-cyclopenta[c]pyridin-6-yl]methylamino]ethyl]-2-oxo-1,3-oxazolidin-3-yl]-4H-pyrido[3,2-b][1,4]oxazin-3-one] |
| – | 195 nM | Cc1nccc2c1CC(NCCCc1cn(-c3cnc4c(n3)NC(=O)CO4)c(=O)o1)C2 (single isomer, unassigned; enantiomer b) [Example 370, 6-[5-[3-[(1-Methyl-6,7-dihydro-5H-cyclopenta[c]pyridin-6-yl)amino]propyl]-2-oxo-1,3-oxazol-3-yl]-4H-pyrazino[2,3-b][1,4]oxazin-3-one; formic acid, Enantiomer B] |
| 158 nM | – | N#Cc1cccc2c1CC(CNCCc1nn(-c3ccc4c(c3)NC(=O)CO4)c(=O)o1)C2 (centres unmarked) [Example 42, 2-[[2-[5-oxo-4-(3-oxo-4H-1,4-benzoxazin-6-yl)-1,3,4-oxadiazol-2-yl]ethylamino]methyl]-2,3-dihydro-1H-indene-4-carbonitrile; formic acid] |
| < 97.7 nM | – | N#Cc1cccc2c1CC(CN1CC(C3CN(c4cnc5c(n4)NC(=O)CO5)C(=O)O3)C1)C2 (centres unmarked) [Example 76, 2-[[3-[2-oxo-3-(3-oxo-4H-pyrazino[2,3-b][1,4]oxazin-6-yl)-1,3-oxazolidin-5-yl]azetidin-1-yl]methyl]-2,3-dihydro-1H-indene-4-carbonitrile; formic acid] |
